Source: patent US20140213648A1, “METHODS OF INCREASING EPA BLOOD LEVELS” (priority 2012, published 2014)

Experiment: 12-week placebo-controlled study: red blood cell fatty acid concentrations, ratios and proportions (GC/FID)
Type: in vivo, human
Settings: for AA red blood cell concentration, change from baseline (LS mean (SE)) / AA red blood cell concentration, end-of-treatment (mean) / DHA red blood cell concentration, change from baseline (LS mean (SE)) / DHA red blood cell concentration, end-of-treatment (mean) / Linoleic red blood cell concentration, change from baseline (LS mean (SE)) / Linoleic red blood cell concentration, end-of-treatment (mean) / Oleic red blood cell concentration, change from baseline (LS mean (SE)) / Oleic red blood cell concentration, end-of-treatment (mean) / Palmitic red blood cell concentration, change from baseline (LS mean (SE)) / Palmitic red blood cell concentration, end-of-treatment (mean) / Proportion of monounsaturated fatty acids to total fatty acids in RBCs, change from baseline (LS mean (SE)) / Proportion of monounsaturated fatty acids to total fatty acids in RBCs, end-of-treatment (mean (SD)) / Proportion of saturated fatty acids to total fatty acids in RBCs, change from baseline (LS mean (SE)) / Proportion of saturated fatty acids to total fatty acids in RBCs, end-of-treatment (mean (SD)) / Proportion of total omega-3 fatty acids to total fatty acids in RBCs, change from baseline (LS mean (SE)) / Proportion of total omega-3 fatty acids to total fatty acids in RBCs, end-of-treatment (mean (SD)) / Proportion of total omega-6 fatty acids to total fatty acids in RBCs, change from baseline (LS mean (SE)) / Proportion of total omega-6 fatty acids to total fatty acids in RBCs, end-of-treatment (mean (SD)) / Ratio of AA/EPA in red blood cells, change from baseline (LS mean (SE)) / Ratio of AA/EPA in red blood cells, end-of-treatment (mean) / Ratio of n-3/n-6 FA in red blood cells, change from baseline (LS mean (SE)) / Ratio of n-3/n-6 FA in red blood cells, end-of-treatment (mean) / Stearic red blood cell concentration, change from baseline (LS mean (SE)) / Stearic red blood cell concentration, end-of-treatment (mean): week 12
Description: A multi-center, placebo-controlled randomized, double-blind, 12-week study with an open-label extension is performed to evaluate the efficacy and safety of AMR101 in patients with fasting triglyceride levels ≧500 mg/dL. The primary objective of the study is to determine the efficacy of AMR101 2 g daily and 4 g daily, compared to placebo, in lowering fasting TG levels in patients with fasting TG levels ≧500 mg/dL and ≦1500 mg/dL (≧5.65 mmol/L and ≦16.94 mmol/L).
Eligible patients will be randomly assigned at Visit 4 (Week 0) to receive orally AMR101 2 g daily, AMR101 4 g daily, or placebo for the 12-week double-blind treatment period. AMR101 is provided in 1 g liquid-filled, oblong, gelatin capsules. The matching placebo capsule is filled with light liquid paraffin and contains 0 g of AMR101. During the double-blind treatment period, patients will take 2 capsules (AMR101 or matching placebo) in the morning and 2 in the evening for a total of 4 capsules per day. Patients in the AMR101 2 g/day treatment group will receive 1 AMR101 1 g capsule and 1 matching placebo capsule in the morning and in the evening. Patients in the AMR101 4 g/day treatment group will receive 2 AMR101 1 g capsules in the morning and evening.
Lipids were extracted from plasma and RBC suspensions and converted into fatty acid methyl esters for analysis using a standard validated gas chromatography/flame ionization detection method. Fatty acid parameters were compared between EPA treatment groups and placebo using an ANCOVA model with treatment, gender, type of statin therapy, and presence of diabetes as factors, and the baseline parameter value as a covariate. LSMs, SEs, and 2-tailed 95% confidence intervals for each treatment group and for each comparison were determined.

[1] = 2 g/day vs placebo, week 12, P <0.0001
[2] = 4 g/day vs placebo, week 12, P <0.0001

CC/C=C\C/C=C\C/C=C\C/C=C\C/C=C\CCCC(=O)OCC [IPE, Icosapent ethyl]
Dose dependence of EPA concentration in RBCs (in words) (2 g/day or 4 g/day, 12 weeks): significantly increased EPA concentrations in a linear, dose-dependent fashion | AA red blood cell concentration, mean placebo-adjusted percent change from baseline (2 g/day vs placebo, week 12, P 0.0008): −8.0% | Proportion of total omega-6 fatty acids to total fatty acids in RBCs, mean placebo-adjusted percent change from baseline (2 g/day vs placebo, week 12, P 0.0014): −13.2% | Proportion of monounsaturated fatty acids to total fatty acids in RBCs, mean placebo-adjusted percent change from baseline (2 g/day vs placebo, week 12, P 0.0435): −3.1% | Proportion of total omega-3 fatty acids to total fatty acids in RBCs, mean placebo-adjusted percent change from baseline (2 g/day vs placebo, week 12, P 0.1183): 23.8% | Linoleic red blood cell concentration, mean placebo-adjusted percent change from baseline (2 g/day vs placebo, week 12, P 0.1278): −4.7% | Proportion of saturated fatty acids to total fatty acids in RBCs, mean placebo-adjusted percent change from baseline (2 g/day vs placebo, week 12, P 0.3278): 1.1% | Oleic red blood cell concentration, mean placebo-adjusted percent change from baseline (2 g/day vs placebo, week 12, P 0.3736): −2.1% | DHA red blood cell concentration, mean placebo-adjusted percent change from baseline (2 g/day vs placebo, week 12, P 0.5859): −1.8% | Stearic red blood cell concentration, mean placebo-adjusted percent change from baseline (2 g/day vs placebo, week 12, P 0.5886): 1.1% | Palmitic red blood cell concentration, mean placebo-adjusted percent change from baseline (2 g/day vs placebo, week 12, P 0.9465): −0.1% | Ratio of AA/EPA in red blood cells, mean placebo-adjusted percent change from baseline [1]: −91.1% | Ratio of n-3/n-6 FA in red blood cells, mean placebo-adjusted percent change from baseline [1]: 65.5% | AA red blood cell concentration, change from baseline (LS mean (SE)) (2 g/day): −20.9 (3.2) | AA red blood cell concentration, end-of-treatment (mean) (2 g/day): 160.3 | DHA red blood cell concentration, change from baseline (LS mean (SE)) (2 g/day): −7.3 (1.5) | DHA red blood cell concentration, end-of-treatment (mean) (2 g/day): 51.5 | Linoleic red blood cell concentration, change from baseline (LS mean (SE)) (2 g/day): −10.7 (4.7) | Linoleic red blood cell concentration, end-of-treatment (mean) (2 g/day): 169.6 | Oleic red blood cell concentration, change from baseline (LS mean (SE)) (2 g/day): −1.4 (4.1) | Oleic red blood cell concentration, end-of-treatment (mean) (2 g/day): 213.0 | Palmitic red blood cell concentration, change from baseline (LS mean (SE)) (2 g/day): −2.9 (5.4) | Palmitic red blood cell concentration, end-of-treatment (mean) (2 g/day): 341.7 | Proportion of monounsaturated fatty acids to total fatty acids in RBCs, change from baseline (LS mean (SE)) (2 g/day): −0.1 (0.3) mol % | Proportion of monounsaturated fatty acids to total fatty acids in RBCs, end-of-treatment (mean (SD)) (2 g/day): 20.0 (1.9) mol % | Proportion of saturated fatty acids to total fatty acids in RBCs, change from baseline (LS mean (SE)) (2 g/day): 0.3 (0.4) mol % | Proportion of saturated fatty acids to total fatty acids in RBCs, end-of-treatment (mean (SD)) (2 g/day): 44.4 (3.0) mol % | Proportion of total omega-3 fatty acids to total fatty acids in RBCs, change from baseline (LS mean (SE)) (2 g/day): 2.6 (0.3) mol % | Proportion of total omega-3 fatty acids to total fatty acids in RBCs, end-of-treatment (mean (SD)) (2 g/day): 8.7 (2.2) mol % | Proportion of total omega-6 fatty acids to total fatty acids in RBCs, change from baseline (LS mean (SE)) (2 g/day): −2.9 (0.4) mol % | Proportion of total omega-6 fatty acids to total fatty acids in RBCs, end-of-treatment (mean (SD)) (2 g/day): 27.0 (3.3) mol % | Ratio of AA/EPA in red blood cells, change from baseline (LS mean (SE)) (2 g/day): −17.7 (0.9) | Ratio of AA/EPA in red blood cells, end-of-treatment (mean) (2 g/day): 5.2 | Ratio of n-3/n-6 FA in red blood cells, change from baseline (LS mean (SE)) (2 g/day): 0.12 (0.010) | Ratio of n-3/n-6 FA in red blood cells, end-of-treatment (mean) (2 g/day): 0.33 | Stearic red blood cell concentration, change from baseline (LS mean (SE)) (2 g/day): −4.7 (2.9) | Stearic red blood cell concentration, end-of-treatment (mean) (2 g/day): 179.0 | Proportion of total omega-3 fatty acids to total fatty acids in RBCs, mean placebo-adjusted percent change from baseline (4 g/day vs placebo, week 12, P 0.0008): 53.4% | Proportion of monounsaturated fatty acids to total fatty acids in RBCs, mean placebo-adjusted percent change from baseline (4 g/day vs placebo, week 12, P 0.0154): −3.9% | Proportion of saturated fatty acids to total fatty acids in RBCs, mean placebo-adjusted percent change from baseline (4 g/day vs placebo, week 12, P 0.1145): 1.9% | DHA red blood cell concentration, mean placebo-adjusted percent change from baseline (4 g/day vs placebo, week 12, P 0.1216): −5.2% | Oleic red blood cell concentration, mean placebo-adjusted percent change from baseline (4 g/day vs placebo, week 12, P 0.1325): −3.7% | Palmitic red blood cell concentration, mean placebo-adjusted percent change from baseline (4 g/day vs placebo, week 12, P 0.7427): −0.7% | Stearic red blood cell concentration, mean placebo-adjusted percent change from baseline (4 g/day vs placebo, week 12, P 0.7565): −0.7% | AA red blood cell concentration, mean placebo-adjusted percent change from baseline [2]: −15.7% | Linoleic red blood cell concentration, mean placebo-adjusted percent change from baseline [2]: −13.0% | Proportion of total omega-6 fatty acids to total fatty acids in RBCs, mean placebo-adjusted percent change from baseline [2]: −17.3% | Ratio of AA/EPA in red blood cells, mean placebo-adjusted percent change from baseline [2]: −102% | Ratio of n-3/n-6 FA in red blood cells, mean placebo-adjusted percent change from baseline [2]: 106.9% | AA red blood cell concentration, change from baseline (LS mean (SE)) (4 g/day): −36.2 (3.4) | AA red blood cell concentration, end-of-treatment (mean) (4 g/day): 148.8 | DHA red blood cell concentration, change from baseline (LS mean (SE)) (4 g/day): −9.7 (1.6) | DHA red blood cell concentration, end-of-treatment (mean) (4 g/day): 51.7 | Linoleic red blood cell concentration, change from baseline (LS mean (SE)) (4 g/day): −25.0 (4.9) | Linoleic red blood cell concentration, end-of-treatment (mean) (4 g/day): 164.7 | Oleic red blood cell concentration, change from baseline (LS mean (SE)) (4 g/day): −5.6 (4.1) | Oleic red blood cell concentration, end-of-treatment (mean) (4 g/day): 208.3 | Palmitic red blood cell concentration, change from baseline (LS mean (SE)) (4 g/day): −5.8 (5.7) | Palmitic red blood cell concentration, end-of-treatment (mean) (4 g/day): 340.6 | Proportion of monounsaturated fatty acids to total fatty acids in RBCs, change from baseline (LS mean (SE)) (4 g/day): −0.2 (0.3) mol % | Proportion of monounsaturated fatty acids to total fatty acids in RBCs, end-of-treatment (mean (SD)) (4 g/day): 19.5 (1.9) mol % | Proportion of saturated fatty acids to total fatty acids in RBCs, change from baseline (LS mean (SE)) (4 g/day): 0.6 (0.4) mol % | Proportion of saturated fatty acids to total fatty acids in RBCs, end-of-treatment (mean (SD)) (4 g/day): 44.5 (2.5) mol % | Proportion of total omega-3 fatty acids to total fatty acids in RBCs, change from baseline (LS mean (SE)) (4 g/day): 4.1 (0.3) mol % | Proportion of total omega-3 fatty acids to total fatty acids in RBCs, end-of-treatment (mean (SD)) (4 g/day): 10.4 (2.3) mol % | Proportion of total omega-6 fatty acids to total fatty acids in RBCs, change from baseline (LS mean (SE)) (4 g/day): −4.7 (0.5) mol % | Proportion of total omega-6 fatty acids to total fatty acids in RBCs, end-of-treatment (mean (SD)) (4 g/day): 25.5 (2.9) mol % | Ratio of AA/EPA in red blood cells, change from baseline (LS mean (SE)) (4 g/day): −19.9 (1.0) | Ratio of AA/EPA in red blood cells, end-of-treatment (mean) (4 g/day): 3.1 | Ratio of n-3/n-6 FA in red blood cells, change from baseline (LS mean (SE)) (4 g/day): 0.20 (0.011) | Ratio of n-3/n-6 FA in red blood cells, end-of-treatment (mean) (4 g/day): 0.42 | Stearic red blood cell concentration, change from baseline (LS mean (SE)) (4 g/day): −8.2 (3.1) | Stearic red blood cell concentration, end-of-treatment (mean) (4 g/day): 178.1
